Reference: ChEMBL document CHEMBL1130872, “Neuronorm is a potent and water soluble neurokinin A receptor antagonist” (Bioorg Med Chem Lett, 1998)

What was measured:
[1] = target: T1, Substance-K receptor (Cavia porcellus) (UniProt Q64077); experiment: Antagonist Activity of compound (10 nM) at Tachykinin receptor 2 at guinea pig trachea in the presence of P-Ala8-NKA[4-IO] as agonist; assay type: functional
T1 sequence (whole entry): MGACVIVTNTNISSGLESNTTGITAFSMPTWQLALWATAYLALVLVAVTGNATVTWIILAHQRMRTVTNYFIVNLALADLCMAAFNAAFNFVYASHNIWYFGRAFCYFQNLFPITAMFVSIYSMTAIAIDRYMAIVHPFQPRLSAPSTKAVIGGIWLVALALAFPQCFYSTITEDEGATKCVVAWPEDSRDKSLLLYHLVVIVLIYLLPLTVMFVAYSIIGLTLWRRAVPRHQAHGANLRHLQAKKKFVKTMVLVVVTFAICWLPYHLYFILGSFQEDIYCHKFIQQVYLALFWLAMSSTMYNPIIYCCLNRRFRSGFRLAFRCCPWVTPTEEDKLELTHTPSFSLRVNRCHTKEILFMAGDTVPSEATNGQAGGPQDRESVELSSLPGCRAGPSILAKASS

[2] = target: T2, Substance-K receptor (Cavia porcellus, UniProt Q64077); experiment: Compound was evaluated for antagonistic activity towards Tachykinin receptor 2 at guinea pig trachea; assay type: functional, tissue-based; conditions: read-out: pA2 (converted)
T2 sequence (Q64077 whole entry): T1 sequence (whole entry)

[3] = target: T1, Substance-K receptor (Cavia porcellus); experiment: Antagonist Activity of compound (30 nM) at Tachykinin receptor 2 at guinea pig trachea in the presence of P-Ala8-NKA[4-IO] as agonist; assay type: functional
[4] = target: T1, Substance-K receptor (Cavia porcellus); experiment: Antagonist Activity of compound (100 nM) at Tachykinin receptor 2 at guinea pig trachea in the presence of P-Ala8-NKA[4-IO] as agonist; assay type: functional

- Emax [1]: 93%
- Kb [2]: 23.4 nM
- Emax [3]: 90%
- Emax [4]: 98%
Structure (SMILES): CSCC[C@@H]1NC(=O)C(CC(C)C)NC(=O)C2CNC(=O)C[C@H](NC1=O)C(=O)N[C@@H](Cc1c[nH]c3ccccc13)C(=O)NC(Cc1ccccc1)C(=O)N2 (single isomer, unassigned)
